Assay results published in ChEMBL document CHEMBL1177848, “Synthesis of novel 6,6a,7,8-tetrahydro-5H-naphtho[1,2-e]pyrimido[4,5-b][1,4]diazepines under microwave irradiation as potential anti-tumor agents” (2010).
Active and inactive are the calls of the source. The calls are words filed in the database; no cut-off is given here.

How the values were obtained:
NCI-H23 [1] = experiment: Growth inhibition of human NCI-H23 cells after 48 hrs by sulforhodamine B assay; format: functional; conditions: NCI-H23, 48 h
NCI-H522 [2] = experiment: Growth inhibition of human NCI-H522 cells after 48 hrs by sulforhodamine B assay; format: functional; conditions: NCI-H522, 48 h
SF-295 = experiment: Growth inhibition of human SF295 cells after 48 hrs by sulforhodamine B assay; format: functional; conditions: SF-295, 48 h
LOX IMVI [3] = experiment: Growth inhibition of human LOXIMVI cells after 48 hrs by sulforhodamine B assay; format: functional
Malme-3M = experiment: Growth inhibition of human MALME-3M cells after 48 hrs by sulforhodamine B assay; format: functional
MDA-MB-435 = experiment: Growth inhibition of human MDA-MB-435 cells after 48 hrs by sulforhodamine B assay; format: functional; conditions: MDA-MB-435, 48 h
SK-MEL-5 [4] = experiment: Growth inhibition of human SK-MEL-5 cells after 48 hrs by sulforhodamine B assay; format: functional; conditions: SK-MEL-5, 48 h
UACC-257 = experiment: Growth inhibition of human UACC257 cells after 48 hrs by sulforhodamine B assay; format: functional; conditions: UACC-257, 48 h
UACC-62 = experiment: Growth inhibition of human UACC62 cells after 48 hrs by sulforhodamine B assay; format: functional; conditions: UACC-62, 48 h
IGROV-1 = experiment: Growth inhibition of human IGROV1 cells after 48 hrs by sulforhodamine B assay; format: functional; conditions: IGROV-1, 48 h
OVCAR-3 [5] = experiment: Growth inhibition of human OVCAR-3 cells after 48 hrs by sulforhodamine B assay; format: functional; conditions: OVCAR-3, 48 h
OVCAR-4 = experiment: Growth inhibition of human OVCAR4 cells after 48 hrs by sulforhodamine B assay; format: functional; conditions: OVCAR-4, 48 h
NCI/ADR-RES = experiment: Growth inhibition of human NCI/ADR-RES cells after 48 hrs by sulforhodamine B assay; format: functional
A498 [6] = experiment: Growth inhibition of human A498 cells after 48 hrs by sulforhodamine B assay; format: functional; conditions: A498, 48 h
CAKI-1 [7] = experiment: Growth inhibition of human Caki1 cells after 48 hrs by sulforhodamine B assay; format: functional; conditions: CAKI-1, 48 h
RXF 393 [8] = experiment: Growth inhibition of human RXF393 cells after 48 hrs by sulforhodamine B assay; format: functional; conditions: RXF 393, 48 h
SN12C = experiment: Growth inhibition of human SN12C cells after 48 hrs by sulforhodamine B assay; format: functional
MDA-MB-231 [9] = experiment: Growth inhibition of human MDA-MB-231 cells after 48 hrs by sulforhodamine B assay; format: functional; conditions: MDA-MB-231, 48 h
T47D = experiment: Growth inhibition of human T47D cells after 48 hrs by sulforhodamine B assay; format: functional
MDA-MB-468 [10] = experiment: Growth inhibition of human MDA-MB-468 cells after 48 hrs by sulforhodamine B assay; format: functional; conditions: MDA-MB-468, 48 h
RPMI-8226 = experiment: Growth inhibition of human RPMI8226 cells at 1 uM after 48 hrs by sulforhodamine B assay; format: functional, cell-based
SR = experiment: Growth inhibition of human SR cells at 1 uM after 48 hrs by sulforhodamine B assay; format: functional, cell-based
K562 = experiment: Growth inhibition of human K562 cells at 1 uM after 48 hrs by sulforhodamine B assay; format: functional, cell-based
EKVX = experiment: Growth inhibition of human EKVX cells at 1 uM after 48 hrs by sulforhodamine B assay; format: functional, cell-based
HOP-92 = experiment: Growth inhibition of human HOP92 cells at 1 uM after 48 hrs by sulforhodamine B assay; format: functional, cell-based
NCI-H23 [11] = experiment: Growth inhibition of human NCI-H23 cells at 1 uM after 48 hrs by sulforhodamine B assay; format: functional, cell-based
NCI-H522 [12] = experiment: Growth inhibition of human NCI-H522 cells at 1 uM after 48 hrs by sulforhodamine B assay; format: functional, cell-based
A549 = experiment: Growth inhibition of human A549 cells at 1 uM after 48 hrs by sulforhodamine B assay; format: functional, cell-based
COLO 205 = experiment: Growth inhibition of human COLO205 cells at 1 uM after 48 hrs by sulforhodamine B assay; format: functional, cell-based
KM12 = experiment: Growth inhibition of human KM12 cells at 1 uM after 48 hrs by sulforhodamine B assay; format: functional, cell-based
HCC 2998 = experiment: Growth inhibition of human HCC2998 cells at 1 uM after 48 hrs by sulforhodamine B assay; format: functional, cell-based
U-251 = experiment: Growth inhibition of human U251 cells at 1 uM after 48 hrs by sulforhodamine B assay; format: functional, cell-based
SF-268 = experiment: Growth inhibition of human SF268 cells at 1 uM after 48 hrs by sulforhodamine B assay; format: functional, cell-based
SNB-75 = experiment: Growth inhibition of human SNB75 cells at 1 uM after 48 hrs by sulforhodamine B assay; format: functional, cell-based
LOX IMVI [13] = experiment: Growth inhibition of human LOXIMVI cells at 1 uM after 48 hrs by sulforhodamine B assay; format: functional, cell-based
SK-MEL-5 [14] = experiment: Growth inhibition of human SK-MEL-5 cells at 1 uM after 48 hrs by sulforhodamine B assay; format: functional, cell-based
OVCAR-3 [15] = experiment: Growth inhibition of human OVCAR-3 cells at 1 uM after 48 hrs by sulforhodamine B assay; format: functional, cell-based
A498 [16] = experiment: Growth inhibition of human A498 cells at 1 uM after 48 hrs by sulforhodamine B assay; format: functional, cell-based
CAKI-1 [17] = experiment: Growth inhibition of human Caki1 cells at 1 uM after 48 hrs by sulforhodamine B assay; format: functional, cell-based
RXF 393 [18] = experiment: Growth inhibition of human RXF393 cells at 1 uM after 48 hrs by sulforhodamine B assay; format: functional, cell-based
TK-10 = experiment: Growth inhibition of human TK10 cells at 1 uM after 48 hrs by sulforhodamine B assay; format: functional, cell-based
PC-3 = experiment: Growth inhibition of human PC3 cells at 1 uM after 48 hrs by sulforhodamine B assay; format: functional, cell-based
DU-145 = experiment: Growth inhibition of human DU145 cells at 1 uM after 48 hrs by sulforhodamine B assay; format: functional, cell-based
MDA-MB-231 [19] = experiment: Growth inhibition of human MDA-MB-231 cells at 1 uM after 48 hrs by sulforhodamine B assay; format: functional, cell-based
MDA-MB-468 [20] = experiment: Growth inhibition of human MDA-MB-468 cells at 1 uM after 48 hrs by sulforhodamine B assay; format: functional, cell-based
Hs-578T = experiment: Growth inhibition of human Hs 578T cells at 1 uM after 48 hrs by sulforhodamine B assay; format: functional, cell-based
[21] = read-out: LC50 (the source's name)

For `Nc1nc(N)c2c(n1)NC(c1ccc(F)cc1)C1CCc3ccccc3C1=N2` (stereo unspecified), the GI50 (NCI-H23 [1]) was 4.06 µM, the LC50 (NCI-H23 [1]) was 46.4 µM and the GI50 (NCI-H522 [2]) was 5.66 µM. For the same compound, the LC50 (NCI-H522 [2]) was 58 µM, the GI50 (SF-295) was 8.64 µM and the LC50 (50% lethal concentration) (SF-295) was 59.7 µM. It also gave a GI50 (LOX IMVI [3]) of 3.98 µM, an LC50 (LOX IMVI [3]) of 43 µM and a GI50 (Malme-3M) of 2.52 µM. It also gave an LC50 (Malme-3M) of 68.6 µM, a GI50 (MDA-MB-435) of 2.84 µM and an LC50 (concentration killing 50% of cells) (MDA-MB-435) of 35.1 µM. For the same compound, the GI50 (SK-MEL-5 [4]) was 0.609 µM, the LC50 (SK-MEL-5 [4]) was 6.03 µM and the GI50 (UACC-257) was 5.37 µM. The CC50 (UACC-257; [21]) was 43.3 µM, the GI50 (UACC-62) was 3.76 µM and the LC50 (UACC-62) was 42.1 µM. For the same compound, the GI50 (IGROV-1) was 7.79 µM, the LC50 (concentration killing 50% of cells) (IGROV-1) was 63.9 µM and the GI50 (OVCAR-3 [5]) was 4.15 µM. It also gave an LC50 (lethal concentration, 50% cell kill) (OVCAR-3 [5]) of 43.2 µM, a GI50 (OVCAR-4) of 3.98 µM and an LC50 (50% lethal concentration) (OVCAR-4) of 50.2 µM. For the same compound, the GI50 (NCI/ADR-RES) was 3.19 µM, the LC50 (concentration killing 50% of cells) (NCI/ADR-RES) was 39.4 µM and the GI50 (A498 [6]) was 2.87 µM. It also gave an LC50 (A498 [6]) of 30.6 µM, a GI50 (CAKI-1 [7]) of 2.72 µM and a CC50 (CAKI-1 [7]; [21]) of 44.6 µM. For the same compound, the GI50 (RXF 393 [8]) was 5.48 µM, the LC50 (50% lethal concentration) (RXF 393 [8]) was 60.4 µM and the GI50 (SN12C) was 7.8 µM. The CC50 (SN12C; [21]) was 50.9 µM, the GI50 (MDA-MB-231 [9]) was 5.8 µM and the CC50 (MDA-MB-231 [9]; [21]) was 48.5 µM. The GI50 (T47D) was 3.86 µM, the CC50 (T47D; [21]) was 62.9 µM and the GI50 (MDA-MB-468 [10]) was 1.43 µM. For the same compound, the CC50 (MDA-MB-468 [10]; [21]) was 33 µM, the “growth inhibition (GI)” value (RPMI-8226) was “inactive” and the “growth inhibition (GI)” value (SR) was “inactive”. The “growth inhibition (GI)” value (K562) was “inactive”, the “growth inhibition (GI)” value (EKVX) was “inactive” and the “growth inhibition (GI)” value (HOP-92) was “inactive”. The “growth inhibition (GI)” value (NCI-H23 [11]) was “inactive”, the “growth inhibition (GI)” value (NCI-H522 [12]) was “inactive” and the “growth inhibition (GI)” value (A549) was “inactive”. For the same compound, the “growth inhibition (GI)” value (COLO 205) was “inactive”, the “growth inhibition (GI)” value (KM12) was “inactive” and the “growth inhibition (GI)” value (HCC 2998) was “inactive”. For the same compound, the “growth inhibition (GI)” value (U-251) was “inactive”, the “growth inhibition (GI)” value (SF-268) was “inactive” and the “growth inhibition (GI)” value (SNB-75) was “inactive”. The “growth inhibition (GI)” value (LOX IMVI [13]) was “inactive”, the “growth inhibition (GI)” value (SK-MEL-5 [14]) was “inactive” and the “growth inhibition (GI)” value (OVCAR-3 [15]) was “inactive”. The “growth inhibition (GI)” value (A498 [16]) was “inactive”, the “growth inhibition (GI)” value (CAKI-1 [17]) was “inactive” and the “growth inhibition (GI)” value (RXF 393 [18]) was “inactive”. For the same compound, the “growth inhibition (GI)” value (TK-10) was “inactive”, the “growth inhibition (GI)” value (PC-3) was “inactive” and the “growth inhibition (GI)” value (DU-145) was “inactive”. The “growth inhibition (GI)” value (MDA-MB-231 [19]) was “inactive”, the “growth inhibition (GI)” value (MDA-MB-468 [20]) was “inactive” and the “growth inhibition (GI)” value (Hs-578T) was “inactive”.
